Values of other authors, collected in US6423302B1, “Use of octocrylene for solubilizing 2,4-bis{[4-(2-ethyl-hexyloxy)-2-hydroxy]-phenyl}-6-(4-methoxyphenyl)-1,3,5-triazine in cosmetic or dermatological light protection compositions” (Beiersdorf AG, priority 1999, dated 2002).

Details: prior-art statement

SMILES: CCCCC(CC)COc1ccc(-c2nc(-c3ccc(OC)cc3)nc(-c3ccc(OCC(CC)CCCC)cc3O)n2)c(O)c1 (centres unmarked) [2,4-bis-{[4-(2-ethylhexyloxy)-2-hydroxy]phenyl}-6-(4-methoxyphenyl)-1,3,5-triazine]
- maximum amount of this filter that known solvents can dissolve (known solvents for this UV filter (lipids)): ≤ 10 % by weight
- solubility in lipids (stated as main disadvantage): poor solubility in lipids
